In article PMC6508583 (Journal of the American Chemical Society, 2019):
In brackets after ≈: the same amount, converted by molar mass. Where two headings read alike, the source gives them in different places.

How the values were obtained:
[1] = system: wild-type bacterial ribosome; assay: Cell-free translation assay, wild-type bacterial ribosome; type: biochemical; settings: in vitro translation inhibition
[2] = system: Mit13 hybrid ribosome (decoding A site of the human mitochondrial ribosome); type: biochemical; settings: for Selectivity Mit 13: Mit13 over wt bacterial ribosome; for IC50 Mit13: in vitro translation inhibition, Mit13 hybrid ribosome
[3] = system: A1555G mutant mitochondrial hybrid ribosome; type: biochemical, human; settings: for Selectivity A1555G: A1555G over wt bacterial ribosome; for IC50 A1555G: in vitro translation inhibition, A1555G mutant mitochondrial hybrid ribosome
[4] = system: Cyt14 hybrid ribosome (decoding A site of the human cytoplasmic ribosome); type: biochemical; settings: for Selectivity Cyt14: Cyt14 over wt bacterial ribosome; for IC50 Cyt 14: in vitro translation inhibition, Cyt14 hybrid ribosome
MRSA = assay: Antibacterial activity against reference strains: MRSA; type: cell-based; settings: for MIC: Staphylococcus aureus, MRSA; for Antibacterial activity (MIC) MRSA AG038: strain AG038; for Antibacterial activity (MIC) MRSA AG042: strain AG042 carries the AAC(6)’, ANT(4’,4’’) and APH(3’) genes
E. cloacae = assay: Antibacterial activity against reference strains: E. cloacae; type: cell-based; settings: for MIC: Enterobacter cloacae, read-out: Antibacterial activity (MIC) E. cloacae AG290; for Antibacterial activity (MIC) E. cloacae AG290: strain AG290
[5] = system: E. coli carrying specific resistance determinants; assay: Activity against wild-type and engineered E. coli carrying specific AMEs or RMTs; type: cell-based; settings: Escherichia coli
[6] = system: E. coli clinical isolates carrying two or more resistance determinants; assay: Activity against E. coli clinical isolates with multiple resistance determinants; type: cell-based; settings: Escherichia coli
[7] = system: E. cloacae clinical isolates carrying two or more resistance determinants; type: cell-based; settings: Enterobacter cloacae
E. coli = assay: Antibacterial activity against reference strains: E. coli; settings: for MIC: Escherichia coli; for Antibacterial activity (MIC) E. coli AG003: strain AG003 carries the AAC(3) gene; for Antibacterial activity (MIC) E. coli AG001: strain AG001
K. pneumoniae = assay: Antibacterial activity against reference strains: K. pneumoniae; type: cell-based; settings: strain AG215
A. baumannii = assay: Antibacterial activity against reference strains: A. baumannii; type: cell-based; settings: strain AG225
P. aeruginosa = assay: Antibacterial activity against reference strains: P. aeruginosa; settings: for Antibacterial activity (MIC) P. aeruginosa AG031: strain AG031 carries the APH(3’) gene
[8] = read-out: Antibacterial activity (MIC) MRSA AG038
[9] = read-out: Antibacterial activity (MIC) MRSA AG042
[10] = read-out: Activity (MIC) E. coli AG006
[11] = read-out: Activity (MIC) E. coli AG007
[12] = read-out: Activity (MIC) E. coli AG008
[13] = read-out: Activity (MIC) E. coli AG009
[14] = read-out: Activity (MIC) E. coli AG036
[15] = read-out: Activity (MIC) E. coli AG103
[16] = read-out: Activity (MIC) E. coli AG105
[17] = read-out: Activity (MIC) E. coli AG166
[18] = read-out: Activity (MIC) E. coli isolate 201430298
[19] = read-out: Activity (MIC) E. coli isolate 201441114
[20] = read-out: Activity (MIC) E. coli isolate 2014251408
[21] = read-out: Activity (MIC) E. coli isolate 2014405344
[22] = read-out: Activity (MIC) E. cloacae isolate 201333207
[23] = read-out: Activity (MIC) E. cloacae isolate 201385168
[24] = read-out: Activity (MIC) E. cloacae isolate 201430601
[25] = read-out: Activity (MIC) E. cloacae isolate 201435487
[26] = read-out: Antibacterial activity (MIC) E. coli AG001
[27] = read-out: Antibacterial activity (MIC) E. coli AG003

| SMILES | IC50 wt [1] [µg/mL] | Selectivity Mit 13 [2] | IC50 Mit13 [2] [µg/mL] | Selectivity A1555G [3] | IC50 A1555G [3] [µg/mL] | Selectivity Cyt14 [4] | IC50 Cyt 14 [4] [µg/mL] | MIC (MRSA; [8]) [µg/mL] | MIC (MRSA; [9]) [µg/mL] | MIC (E. cloacae) [µg/mL] | MIC [5, 10] [µg/mL] | MIC [5, 11] [µg/mL] | MIC [5, 12] [µg/mL] | MIC [5, 13] [µg/mL] | MIC [5, 14] [µg/mL] | MIC [5, 15] [µg/mL] | MIC [5, 16] [µg/mL] | MIC [5, 17] [µg/mL] | MIC [6, 18] [µg/mL] | MIC [6, 19] [µg/mL] | further results |
| --- | --- | --- | --- | --- | --- | --- | --- | --- | --- | --- | --- | --- | --- | --- | --- | --- | --- | --- | --- | --- | --- |
| NCC[C@H](O)C(=O)N[C@@H]1C[C@H](N)[C@@H](O[C@H]2O[C@H](CN)[C@@H](O)[C@H](O)[C@H]2O)[C@H](O)[C@H]1O[C@H]1O[C@H](CO)[C@@H](O)[C@H](N)[C@H]1O [Amikacin] | 0.02 (≈ 0.0342 µM) | 600 | 12 (≈ 20.5 µM) | 21 | 0.42 (≈ 0.717 µM) | 4500 | 90 (≈ 154 µM) | 4 (≈ 6.83 µM) | 16 to 32 (≈ 27.3 to 54.6 µM) | 1 (≈ 1.71 µM) | 1 to 2 (≈ 1.71 to 3.42 µM) | 2 (≈ 3.42 µM) | 1 to 2 (≈ 1.71 to 3.42 µM) | 32 (≈ 54.6 µM) | 4 to 8 (≈ 6.83 to 13.7 µM) | > 128 | 2 (≈ 3.42 µM) | 2 (≈ 3.42 µM) | 8 (≈ 13.7 µM) | 64 (≈ 109 µM) | MIC [6, 20]: 64 µg/mL (≈ 109 µM); MIC [6, 21]: > 256 µg/mL; MIC [7, 22]: 16 µg/mL (≈ 27.3 µM); MIC [7, 23]: > 256 µg/mL; MIC [7, 24]: 8 µg/mL (≈ 13.7 µM); MIC [7, 25]: 4 µg/mL (≈ 6.83 µM); MIC (E. coli; [26]): 2 µg/mL (≈ 3.42 µM); MIC (E. coli; [27]): 2 µg/mL (≈ 3.42 µM) |
| NC[C@@H]1O[C@H](O[C@H]2[C@@H](O)[C@H](O[C@@H]3[C@@H](O)[C@H](N)C[C@H](N)[C@H]3O[C@H]3O[C@H](CO)C[C@H](O)[C@H]3N)O[C@@H]2CO)[C@H](N)[C@@H](O)[C@@H]1O [Compound 2, 4’-deoxy paromomycin] | 0.05 (≈ 0.0834 µM) | 1480 | 74 (≈ 123 µM) | 480 | 24 (≈ 40 µM) | 560 | 28 (≈ 46.7 µM) |  |  |  |  |  |  |  |  |  |  |  |  |  | Antibacterial activity (MIC) MRSA AG038 (MRSA): 16 µg/mL; Antibacterial activity (MIC) MRSA AG042 (MRSA): 8 to 16 µg/mL; Antibacterial activity (MIC) K. pneumoniae AG215 (K. pneumoniae): 4 µg/mL; Antibacterial activity (MIC) E. cloacae AG290 (E. cloacae): 4 to 8 µg/mL; Antibacterial activity (MIC) A. baumannii AG225 (A. baumannii): 8 µg/mL; Antibacterial activity (MIC) E. coli AG003 (E. coli): 32 µg/mL |
| CCC1C(CO)OC(OC2C(N)CC(N)C(O)C2OC2OC(CO)C(OC3OC(CN)C(O)C(O)C3N)C2O)C(N)C1O (centres unmarked) [Compound 35] | 0.06 (≈ 0.0956 µM) | 3033 | 182 (≈ 290 µM) | 2150 | 129 (≈ 206 µM) | 1867 | 112 (≈ 178 µM) |  |  |  |  |  |  |  |  |  |  |  |  |  | Antibacterial activity (MIC) MRSA AG038 (MRSA): 8 µg/mL; Antibacterial activity (MIC) MRSA AG042 (MRSA): 4 to 8 µg/mL; Antibacterial activity (MIC) K. pneumoniae AG215 (K. pneumoniae): 4 µg/mL; Antibacterial activity (MIC) E. cloacae AG290 (E. cloacae): 4 to 8 µg/mL; Antibacterial activity (MIC) A. baumannii AG225 (A. baumannii): 16 to 32 µg/mL; Antibacterial activity (MIC) E. coli AG001 (E. coli): 8 µg/mL; Antibacterial activity (MIC) E. coli AG003 (E. coli): 8 µg/mL; Antibacterial activity (MIC) P. aeruginosa AG031 (P. aeruginosa): 64 to 128 µg/mL |
| NCC1OC(OC2C(CO)OC(OC3C(O)C(N)CC(N)C3OC3OC(CO)C(CC(O)CO)C(O)C3N)C2O)C(N)C(O)C1O (centres unmarked) [Compound 37] | 0.10 (≈ 0.148 µM) | 320 | 32 (≈ 47.5 µM) | 330 | 33 (≈ 49 µM) | 590 | 59 (≈ 87.6 µM) |  |  |  |  |  |  |  |  |  |  |  |  |  | Antibacterial activity (MIC) MRSA AG038 (MRSA): 4 µg/mL; Antibacterial activity (MIC) MRSA AG042 (MRSA): 8 µg/mL; Antibacterial activity (MIC) K. pneumoniae AG215 (K. pneumoniae): 8 µg/mL; Antibacterial activity (MIC) E. cloacae AG290 (E. cloacae): 4 to 8 µg/mL; Antibacterial activity (MIC) A. baumannii AG225 (A. baumannii): 8 µg/mL; Antibacterial activity (MIC) E. coli AG001 (E. coli): 16 µg/mL; Antibacterial activity (MIC) E. coli AG003 (E. coli): 8 µg/mL; Antibacterial activity (MIC) P. aeruginosa AG031 (P. aeruginosa): 16 to 32 µg/mL; Antibacterial activity (MIC) P. aeruginosa AG220 (P. aeruginosa; strain AG220 carries the APH(3’) gene): 16 µg/mL |
| CNC(C)C1CCC(N)C(OC2C(N)CC(N)C(OC3OCC(C)(O)C(NC)C3O)C2O)O1 (centres unmarked) [Gentamicin] | 0.02 (≈ 0.0419 µM) |  | 9 (≈ 18.8 µM) |  | 0.5 (≈ 1.05 µM) |  | 33 (≈ 69.1 µM) | 0.25 (≈ 0.523 µM) | 64 (≈ 134 µM) | 0.25 (≈ 0.523 µM) | 0.5 (≈ 1.05 µM) | 32 (≈ 67 µM) | 8 to 16 (≈ 16.8 to 33.5 µM) | 1 to 2 (≈ 2.09 to 4.19 µM) | 0.5 (≈ 1.05 µM) | > 128 | 32 (≈ 67 µM) | 0.5 (≈ 1.05 µM) | 128 (≈ 268 µM) | 16 (≈ 33.5 µM) | MIC [6, 20]: 256 µg/mL (≈ 536 µM); MIC [6, 21]: > 256 µg/mL; MIC [7, 22]: 64 µg/mL (≈ 134 µM); MIC [7, 23]: > 256 µg/mL; MIC [7, 24]: 16 µg/mL (≈ 33.5 µM); MIC [7, 25]: 64 µg/mL (≈ 134 µM); MIC (E. coli; [26]): 1 to 2 µg/mL (≈ 2.09 to 4.19 µM); MIC (E. coli; [27]): 32 to 64 µg/mL (≈ 67 to 134 µM) |
| NC[C@H]1O[C@H](O[C@H]2[C@H](O)[C@@H](O[C@H]3O[C@H](CO)[C@@H](O)[C@H](N)[C@H]3O)[C@H](N)C[C@@H]2N)[C@H](N)C[C@@H]1O [Tobramycin] | 0.02 (≈ 0.0428 µM) | 750 | 15 (≈ 32.1 µM) | 25 | 0.5 (≈ 1.07 µM) | 1350 | 27 (≈ 57.8 µM) | 0.5 to 1 (≈ 1.07 to 2.14 µM) | ≥ 256 | 0.5 to 1 (≈ 1.07 to 2.14 µM) | 0.5 (≈ 1.07 µM) | 4 (≈ 8.56 µM) | 8 (≈ 17.1 µM) | 64 to 128 (≈ 137 to 274 µM) | 16 to 32 (≈ 34.2 to 68.4 µM) | > 128 | 1 (≈ 2.14 µM) | 0.5 to 1 (≈ 1.07 to 2.14 µM) | 256 (≈ 548 µM) | 32 (≈ 68.4 µM) | MIC [6, 20]: 128 µg/mL (≈ 274 µM); MIC [6, 21]: > 256 µg/mL; MIC [7, 22]: 32 µg/mL (≈ 68.4 µM); MIC [7, 23]: > 256 µg/mL; MIC [7, 24]: 32 µg/mL (≈ 68.4 µM); MIC [7, 25]: 16 µg/mL (≈ 34.2 µM); MIC (E. coli; [26]): 1 to 2 µg/mL (≈ 2.14 to 4.28 µM); MIC (E. coli; [27]): 4 µg/mL (≈ 8.56 µM) |
